Strand notation (5' to 3'): a small letter for the sugar, then the base; units joined by * are phosphorothioate-linked, units joined directly phosphodiester-linked; [ ] holds rarer units or linkages, { } end groups; capitals alone tell only the bases. k = constrained ethyl (cEt); [5mC] = 5-methylcytosine; d = 2'-deoxy (DNA)
System: Yap1 mRNA
Assay: Antisense inhibition of human Yap1 in A-431 cells by cEt gapmers, single dose (Example 1, RTS4814)
Type: cell-based
Conditions: A-431 cells, 5,000 cells per well, free uptake, 2,000 nM modified oligonucleotide, approx. 48 hours, RTS4814, normalized to RIBOGREEN; Table 3
Outline: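 Free uptake of 2,000 nM 3-10-3 cEt gapmer (16-mer, full phosphorothioate, 5-methylcytosines) in A-431 cells for ~48 h. Yap1 mRNA quantified by qRT-PCR with set RTS4814, normalized to total RNA (RiboGreen), and expressed as % of untreated control; asterisked values target the amplicon region.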

| Substance | YAP1 (% UTC) |
| --- | --- |
| 715591 (k[5mC]*kT*kT*dT*dG*dG*d[5mC]*dA*dG*dA*dG*dA*dT*kA*kA*kA; antisense) [Compound 715591] | 41 |
| 715573 (kT*kA*kT*dA*dT*dA*dT*dG*dG*dT*dA*dG*dT*k[5mC]*kT*kA; antisense) [Compound 715573] | 76 |
| 715402 (kA*kG*kG*dA*dG*dT*d[5mC]*dG*dG*dG*d[5mC]*dA*dG*k[5mC]*kT*kT; antisense) [Compound 715402] | 59 |
| 715621 (antisense kT*kA*kA*dA*dA*dA*dA*dT*dA*dA*dG*dA*d[5mC]*kG*kG*kA) [Compound 715621] | 106 |
| 715408 (kG*k[5mC]*kG*dG*d[5mC]*dT*dT*dG*dA*dA*dG*dA*dA*kG*kG*kA; antisense) [Compound 715408] | 60 |
| 715450 (antisense kT*kT*kG*dT*dT*d[5mC]*dT*d[5mC]*dA*dA*dT*dT*d[5mC]*k[5mC]*kT*kG) [Compound 715450] | 53 |
| 715438 (antisense kT*kT*k[5mC]*dA*dT*dG*dG*d[5mC]*dA*dA*dA*dA*d[5mC]*kG*kA*kG) [Compound 715438] | 82 |
| 715519 (kT*kT*k[5mC]*d[5mC]*dA*d[5mC]*dT*d[5mC]*dA*dA*dG*dT*dT*kA*k[5mC]*kA; antisense) [Compound 715519] | 96 |
| 715603 (antisense kG*k[5mC]*kA*d[5mC]*dA*dG*dA*dA*dT*dT*d[5mC]*d[5mC]*d[5mC]*kA*kA*kG) [Compound 715603] | 106 |
| 715609 (antisense kT*kG*kT*dG*dT*dA*dG*dG*d[5mC]*dT*dG*dA*d[5mC]*kT*kT*kA) [Compound 715609] | 56 |
| 715588 (kA*kG*k[5mC]*dA*dG*d[5mC]*dT*dA*dA*d[5mC]*dA*dG*d[5mC]*kT*kT*kG; antisense) [Compound 715588] | 96 |
| 715414 (kA*kA*k[5mC]*dA*dT*dG*d[5mC]*dT*dG*dT*dG*dG*dA*kG*kT*k[5mC]; antisense) [Compound 715414] | 31 |
| 715405 (kT*kG*kA*dA*dG*dA*dA*dG*dG*dA*dG*dT*d[5mC]*kG*kG*kG; antisense) [Compound 715405] | 60 |
| 715612 (antisense kT*kA*k[5mC]*dT*dT*dT*dA*dA*dG*d[5mC]*d[5mC]*dA*d[5mC]*kA*kT*kG) [Compound 715612] | 77 |
| 715516 (k[5mC]*k[5mC]*kT*dA*dT*dG*dA*dG*dT*d[5mC]*dA*dA*d[5mC]*k[5mC]*kT*kG; antisense) [Compound 715516] | 77 |
| 715600 (antisense kA*kA*kT*dT*d[5mC]*d[5mC]*d[5mC]*dA*dA*dG*d[5mC]*dT*dA*k[5mC]*k[5mC]*k[5mC]) [Compound 715600] | 82 |
| 715462 (antisense kT*k[5mC]*kT*d[5mC]*dA*dT*d[5mC]*dT*d[5mC]*dG*dA*dG*dA*kG*kT*kG) [Compound 715462] | 94 |
| 715507 (antisense kT*kG*kG*dG*dA*dT*dT*dG*dA*dT*dA*dT*dT*k[5mC]*k[5mC]*kG) [Compound 715507] | 95 |
| 715504 (antisense kT*kG*kG*dT*dT*dT*dA*dT*dT*dG*dT*dA*dA*kA*kA*kG) [Compound 715504] | 70 |
| 715528 (kA*kA*kA*d[5mC]*d[5mC]*dT*dG*dA*dT*d[5mC]*d[5mC]*dT*dT*kT*kG*kA; antisense) [Compound 715528] | 98 |
| 715432 (k[5mC]*kT*k[5mC]*d[5mC]*dA*dT*d[5mC]*d[5mC]*dT*dG*dA*dG*dT*k[5mC]*kA*kT; antisense) [Compound 715432] | 65 |
| 715624 (antisense kT*kG*k[5mC]*d[5mC]*dT*dA*dA*dG*dA*dG*dT*dA*dA*kA*kA*kA) [Compound 715624] | 123 |
| 715627 (antisense k[5mC]*kT*kA*d[5mC]*d[5mC]*dT*dG*dA*d[5mC]*dA*dT*dT*dT*kT*kG*kG) [Compound 715627] | 88 |
| 715459 (antisense k[5mC]*kT*k[5mC]*dG*dA*dG*dA*dG*dT*dG*dA*dT*dA*kG*kG*kT) [Compound 715459] | 93 |

Same assay, conditions: Table 1; A-431 cells, free uptake, 2,000 nM, approximately 48 hours, RTS4814; Yap1 mRNA relative to untreated control cells

| Substance | YAP1 (% UTC) |
| --- | --- |
| 715448 (antisense k[5mC]*kT*k[5mC]*dA*dA*dT*dT*d[5mC]*d[5mC]*dT*dG*dA*dG*kA*k[5mC]*kA) [Compound 715448] | 97 |
| 715565 (kG*kG*kA*dT*dA*dA*dA*dT*dG*dA*dA*dT*dT*kA*kT*kA; antisense) [Compound 715565] | 115 |
| 715583 (kG*kG*kG*d[5mC]*d[5mC]*dA*d[5mC]*dA*dA*dA*dA*dT*dA*kA*kA*kA; antisense) [Compound 715583] | 164 |
| 715571 (kA*kA*kA*dA*dT*d[5mC]*d[5mC]*dT*dG*d[5mC]*d[5mC]*dA*dA*k[5mC]*kA*kT; antisense) [Compound 715571] | 127 |
| 715604 (antisense kT*kA*kG*d[5mC]*dA*d[5mC]*dA*dG*dA*dA*dT*dT*d[5mC]*k[5mC]*k[5mC]*kA) [Compound 715604] | 107 |
| 715403 (kG*kA*kA*dG*dG*dA*dG*dT*d[5mC]*dG*dG*dG*d[5mC]*kA*kG*k[5mC]; antisense) [Compound 715403] | 72 |
| 715424 (kT*kG*k[5mC]*d[5mC]*dA*dT*dG*dT*dT*dG*dT*dT*dG*kT*k[5mC]*kT; antisense) [Compound 715424] | 58 |
| 715481 (antisense kT*kT*kG*dG*dA*dA*dA*d[5mC]*d[5mC]*dA*dT*dT*dA*kT*kT*kA) [Compound 715481] | 66 |
| 715547 (kG*kT*kT*dG*dA*d[5mC]*d[5mC]*dA*dA*d[5mC]*dT*dA*d[5mC]*kT*kT*kG; antisense) [Compound 715547] | 98 |
| 715526 (kA*k[5mC]*kT*dT*dA*d[5mC]*dT*dT*dT*dA*dA*dG*dA*kA*kG*kT; antisense) [Compound 715526] | 112 |
| 715472 (antisense kT*kT*kT*dA*dT*d[5mC]*dT*dA*dG*d[5mC]*dT*dT*dG*kG*kT*kG) [Compound 715472] | 52 |
| 715556 (kA*kA*kG*dT*dT*dA*dT*dT*d[5mC]*dA*dG*d[5mC]*dA*kG*k[5mC]*kT; antisense) [Compound 715556] | 63 |
| 715505 (antisense kA*kT*kT*dG*dG*dT*dT*dT*dA*dT*dT*dG*dT*kA*kA*kA) [Compound 715505] | 84 |
| 715523 (kA*kT*k[5mC]*dA*dG*dT*dA*d[5mC]*dT*dG*dG*d[5mC]*d[5mC]*kT*kA*kT; antisense) [Compound 715523] | 32 |
| 715532 (kT*kA*kA*d[5mC]*dA*dA*d[5mC]*d[5mC]*dT*dG*dG*dT*dT*kT*kG*kT; antisense) [Compound 715532] | 91 |
| 715415 (k[5mC]*kG*kA*dA*d[5mC]*dA*dT*dG*d[5mC]*dT*dG*dT*dG*kG*kA*kG; antisense) [Compound 715415] | 24 |
| 715538 (k[5mC]*kT*kT*dT*dG*dT*dA*dA*d[5mC]*dT*dT*dA*dA*kA*kA*kG; antisense) [Compound 715538] | 110 |
| 715409 (k[5mC]*kA*kG*dT*dA*d[5mC]*dT*dG*dG*d[5mC]*d[5mC]*dT*dG*kT*k[5mC]*kG; antisense) [Compound 715409] | 76 |
| 715496 (antisense k[5mC]*k[5mC]*k[5mC]*dT*dT*dG*dA*dA*dA*dA*dT*dA*dA*kG*kG*kG) [Compound 715496] | 124 |
| 715457 (antisense kA*kG*kA*dG*dT*dG*dA*dT*dA*dG*dG*dT*dG*k[5mC]*k[5mC]*kA) [Compound 715457] | 47 |

Same assay, conditions: Table 2; A-431 cells, free uptake, 2,000 nM, approximately 48 hours, RTS4814; Yap1 mRNA relative to untreated control cells

| Substance | YAP1 (% UTC) |
| --- | --- |
| 715464 (antisense k[5mC]*k[5mC]*kA*d[5mC]*dA*dT*dT*dT*dG*dT*d[5mC]*d[5mC]*d[5mC]*kA*kG*kG) [Compound 715464] | 89 |
| 715437 (antisense k[5mC]*kA*kT*dG*dG*d[5mC]*dA*dA*dA*dA*d[5mC]*dG*dA*kG*kG*kG) [Compound 715437] | 89 |
| 715554 (kT*kA*kT*dT*d[5mC]*dA*dG*d[5mC]*dA*dG*d[5mC]*dT*dT*kA*kT*kA; antisense) [Compound 715554] | 93 |
| 715515 (kT*kA*kT*dG*dA*dG*dT*d[5mC]*dA*dA*d[5mC]*d[5mC]*dT*kG*k[5mC]*kA; antisense) [Compound 715515] | 94 |
| 715572 (kT*k[5mC]*kA*dG*dA*dG*dA*dA*dG*dA*dA*dA*dG*kG*kT*kA; antisense) [Compound 715572] | 97 |
| 715599 (antisense kT*kT*k[5mC]*d[5mC]*d[5mC]*dA*dA*dG*d[5mC]*dT*dA*d[5mC]*d[5mC]*k[5mC]*kA*kA) [Compound 715599] | 82 |
| 715560 (k[5mC]*k[5mC]*k[5mC]*dT*dT*dT*dA*d[5mC]*dA*dA*dA*dA*dA*kT*kA*kG; antisense) [Compound 715560] | 98 |
| 715548 (kA*kG*kT*dT*dG*dT*dT*dG*dA*d[5mC]*d[5mC]*dA*dA*k[5mC]*kT*kA; antisense) [Compound 715548] | 117 |
| 715422 (kA*kT*kG*dT*dT*dG*dT*dT*dG*dT*d[5mC]*dT*dG*kA*kT*k[5mC]; antisense) [Compound 715422] | 57 |
| 715536 (kG*kG*k[5mC]*dT*dA*dT*dT*dA*dA*dG*d[5mC]*dT*dG*kT*kT*kT; antisense) [Compound 715536] | 137 |
